In the kinase profiling compilation of Christmann-Franck et al. (2016):

biological target: CAMK2D (human) (UniProt Q13557); assay: radiometric filter-binding kinase assay, Kinase HotSpot; settings: compound 0.5 µM; ATP 10 µM
Sequence (Q13557 whole entry, looked up): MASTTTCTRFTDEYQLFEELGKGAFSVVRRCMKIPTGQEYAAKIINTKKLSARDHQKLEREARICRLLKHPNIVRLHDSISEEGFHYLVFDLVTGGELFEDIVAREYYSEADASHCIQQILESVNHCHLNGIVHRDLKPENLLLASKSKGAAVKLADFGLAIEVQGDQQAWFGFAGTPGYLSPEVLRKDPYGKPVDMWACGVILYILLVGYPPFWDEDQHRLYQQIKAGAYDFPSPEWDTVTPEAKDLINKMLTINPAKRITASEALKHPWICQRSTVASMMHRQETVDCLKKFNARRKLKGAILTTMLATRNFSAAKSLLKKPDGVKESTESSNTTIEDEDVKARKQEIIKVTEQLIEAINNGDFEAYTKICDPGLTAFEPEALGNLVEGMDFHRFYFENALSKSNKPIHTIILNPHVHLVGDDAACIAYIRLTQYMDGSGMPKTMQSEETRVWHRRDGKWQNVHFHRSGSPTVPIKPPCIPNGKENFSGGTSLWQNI

Compound	residual activity [%]
Nc1nc(Nc2ccc(S(N)(=O)=O)cc2)nn1C(=O)c1c(F)cccc1F	94.6
CSc1nc(-c2ccc(F)cc2)c(-c2ccnc(NC(C)c3ccccc3)c2)[nH]1 (configuration not stated)	99.3
CCCNC(=O)Nc1ccc(Oc2ncnc3cc(OC)c(OC)cc23)cc1Cl	89.4
O=C1Nc2cc(Br)ccc2/C1=C1/Nc2ccccc2/C1=N\O	23

biological target: STK25 (human) (UniProt O00506); assay: as above; settings: compound 0.5 µM; ATP 10 µM
Sequence (O00506 whole entry, looked up): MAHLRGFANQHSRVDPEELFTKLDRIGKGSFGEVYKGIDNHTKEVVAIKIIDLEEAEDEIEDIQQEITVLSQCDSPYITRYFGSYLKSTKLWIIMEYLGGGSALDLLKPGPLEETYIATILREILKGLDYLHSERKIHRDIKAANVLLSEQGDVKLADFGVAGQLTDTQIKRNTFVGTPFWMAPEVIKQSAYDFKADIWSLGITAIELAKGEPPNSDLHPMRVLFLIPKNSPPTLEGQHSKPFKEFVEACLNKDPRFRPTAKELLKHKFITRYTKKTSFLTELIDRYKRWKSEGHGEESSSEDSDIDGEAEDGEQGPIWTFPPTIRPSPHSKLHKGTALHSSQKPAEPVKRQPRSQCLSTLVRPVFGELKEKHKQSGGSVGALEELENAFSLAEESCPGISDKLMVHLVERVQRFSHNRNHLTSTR

Compound	residual activity [%]
Nc1nc(Nc2ccc(S(N)(=O)=O)cc2)nn1C(=O)c1c(F)cccc1F	82.3
CSc1nc(-c2ccc(F)cc2)c(-c2ccnc(NC(C)c3ccccc3)c2)[nH]1 (configuration not stated)	118
CCCNC(=O)Nc1ccc(Oc2ncnc3cc(OC)c(OC)cc23)cc1Cl	92.6
O=C1Nc2cc(Br)ccc2/C1=C1/Nc2ccccc2/C1=N\O	96.3

biological target: CAMK1G (human) (UniProt Q96NX5); assay: as above; settings: compound 0.5 µM; ATP 10 µM
Sequence (Q96NX5 whole entry, looked up): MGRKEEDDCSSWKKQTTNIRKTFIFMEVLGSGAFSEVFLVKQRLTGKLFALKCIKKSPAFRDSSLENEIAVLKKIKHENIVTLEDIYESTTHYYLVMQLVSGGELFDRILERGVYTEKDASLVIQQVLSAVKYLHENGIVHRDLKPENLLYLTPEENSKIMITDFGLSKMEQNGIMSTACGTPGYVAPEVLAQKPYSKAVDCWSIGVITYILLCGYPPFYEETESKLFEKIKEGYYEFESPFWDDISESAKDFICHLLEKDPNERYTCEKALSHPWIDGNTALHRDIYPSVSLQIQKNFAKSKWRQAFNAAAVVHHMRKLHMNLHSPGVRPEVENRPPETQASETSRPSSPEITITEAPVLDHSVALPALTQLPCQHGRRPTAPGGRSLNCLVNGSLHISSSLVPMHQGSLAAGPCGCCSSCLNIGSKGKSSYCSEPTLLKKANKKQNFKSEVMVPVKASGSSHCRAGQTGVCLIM

Compound	residual activity [%]
Nc1nc(Nc2ccc(S(N)(=O)=O)cc2)nn1C(=O)c1c(F)cccc1F	101
CSc1nc(-c2ccc(F)cc2)c(-c2ccnc(NC(C)c3ccccc3)c2)[nH]1 (configuration not stated)	98.3
CCCNC(=O)Nc1ccc(Oc2ncnc3cc(OC)c(OC)cc23)cc1Cl	103
O=C1Nc2cc(Br)ccc2/C1=C1/Nc2ccccc2/C1=N\O	96

biological target: KIT (human) (UniProt P10721); assay: as above; settings: compound 0.5 µM; ATP 10 µM

Compound	residual activity [%]
Nc1nc(Nc2ccc(S(N)(=O)=O)cc2)nn1C(=O)c1c(F)cccc1F	81.7
CSc1nc(-c2ccc(F)cc2)c(-c2ccnc(NC(C)c3ccccc3)c2)[nH]1 (configuration not stated)	92.4
CCCNC(=O)Nc1ccc(Oc2ncnc3cc(OC)c(OC)cc23)cc1Cl	39.2
O=C1Nc2cc(Br)ccc2/C1=C1/Nc2ccccc2/C1=N\O	42.3

biological target: BTK (human) (UniProt Q06187); assay: as above; settings: compound 0.5 µM; ATP 10 µM
Sequence (Q06187 whole entry, looked up): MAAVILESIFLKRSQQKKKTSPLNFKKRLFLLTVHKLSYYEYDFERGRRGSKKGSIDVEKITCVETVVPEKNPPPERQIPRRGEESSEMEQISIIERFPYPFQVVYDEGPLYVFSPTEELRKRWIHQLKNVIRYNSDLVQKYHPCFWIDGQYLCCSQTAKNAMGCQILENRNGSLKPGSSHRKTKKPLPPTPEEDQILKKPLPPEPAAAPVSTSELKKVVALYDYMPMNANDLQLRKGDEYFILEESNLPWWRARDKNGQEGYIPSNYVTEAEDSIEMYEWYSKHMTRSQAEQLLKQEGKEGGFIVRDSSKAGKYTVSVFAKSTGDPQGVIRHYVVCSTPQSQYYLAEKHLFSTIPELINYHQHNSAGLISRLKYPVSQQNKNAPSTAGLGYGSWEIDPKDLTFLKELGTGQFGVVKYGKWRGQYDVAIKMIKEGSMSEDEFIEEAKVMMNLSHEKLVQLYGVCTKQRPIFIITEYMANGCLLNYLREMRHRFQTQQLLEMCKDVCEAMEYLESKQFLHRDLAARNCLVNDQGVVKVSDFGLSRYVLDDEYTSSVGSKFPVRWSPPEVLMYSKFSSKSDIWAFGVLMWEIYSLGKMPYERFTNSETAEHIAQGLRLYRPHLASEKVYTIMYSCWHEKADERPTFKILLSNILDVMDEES

Compound	residual activity [%]
Nc1nc(Nc2ccc(S(N)(=O)=O)cc2)nn1C(=O)c1c(F)cccc1F	87.1
CSc1nc(-c2ccc(F)cc2)c(-c2ccnc(NC(C)c3ccccc3)c2)[nH]1 (configuration not stated)	76.6
CCCNC(=O)Nc1ccc(Oc2ncnc3cc(OC)c(OC)cc23)cc1Cl	98.6
O=C1Nc2cc(Br)ccc2/C1=C1/Nc2ccccc2/C1=N\O	13.1

biological target: TSSK2 (human) (UniProt Q96PF2); assay: as above; settings: compound 0.5 µM; ATP 10 µM

Compound	residual activity [%]
Nc1nc(Nc2ccc(S(N)(=O)=O)cc2)nn1C(=O)c1c(F)cccc1F	103
CSc1nc(-c2ccc(F)cc2)c(-c2ccnc(NC(C)c3ccccc3)c2)[nH]1 (configuration not stated)	78.2
CCCNC(=O)Nc1ccc(Oc2ncnc3cc(OC)c(OC)cc23)cc1Cl	98.7
O=C1Nc2cc(Br)ccc2/C1=C1/Nc2ccccc2/C1=N\O	101

biological target: STK33 (human) (UniProt Q9BYT3); assay: as above; settings: compound 0.5 µM; ATP 10 µM

Compound	residual activity [%]
Nc1nc(Nc2ccc(S(N)(=O)=O)cc2)nn1C(=O)c1c(F)cccc1F	74.4
CSc1nc(-c2ccc(F)cc2)c(-c2ccnc(NC(C)c3ccccc3)c2)[nH]1 (configuration not stated)	107
CCCNC(=O)Nc1ccc(Oc2ncnc3cc(OC)c(OC)cc23)cc1Cl	88.1
O=C1Nc2cc(Br)ccc2/C1=C1/Nc2ccccc2/C1=N\O	69.4

biological target: MAPK3 (human) (UniProt P27361); assay: as above; settings: compound 0.5 µM; ATP 10 µM
Sequence (P27361 whole entry, looked up): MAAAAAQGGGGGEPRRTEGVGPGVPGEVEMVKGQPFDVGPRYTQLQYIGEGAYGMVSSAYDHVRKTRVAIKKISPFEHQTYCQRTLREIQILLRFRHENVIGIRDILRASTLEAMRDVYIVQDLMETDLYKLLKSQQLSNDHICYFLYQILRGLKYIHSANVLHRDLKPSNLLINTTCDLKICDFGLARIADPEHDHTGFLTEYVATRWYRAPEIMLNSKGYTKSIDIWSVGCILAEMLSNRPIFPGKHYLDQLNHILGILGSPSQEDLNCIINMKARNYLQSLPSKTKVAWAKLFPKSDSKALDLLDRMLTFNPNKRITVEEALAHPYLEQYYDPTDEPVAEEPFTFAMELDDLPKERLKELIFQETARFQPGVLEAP

Compound	residual activity [%]
Nc1nc(Nc2ccc(S(N)(=O)=O)cc2)nn1C(=O)c1c(F)cccc1F	108
CSc1nc(-c2ccc(F)cc2)c(-c2ccnc(NC(C)c3ccccc3)c2)[nH]1 (configuration not stated)	68
CCCNC(=O)Nc1ccc(Oc2ncnc3cc(OC)c(OC)cc23)cc1Cl	105
O=C1Nc2cc(Br)ccc2/C1=C1/Nc2ccccc2/C1=N\O	83.3

biological target: STK39 (human) (UniProt Q9UEW8); assay: as above; settings: compound 0.5 µM; ATP 10 µM

Compound	residual activity [%]
Nc1nc(Nc2ccc(S(N)(=O)=O)cc2)nn1C(=O)c1c(F)cccc1F	89.5
CSc1nc(-c2ccc(F)cc2)c(-c2ccnc(NC(C)c3ccccc3)c2)[nH]1 (configuration not stated)	95
CCCNC(=O)Nc1ccc(Oc2ncnc3cc(OC)c(OC)cc23)cc1Cl	88
O=C1Nc2cc(Br)ccc2/C1=C1/Nc2ccccc2/C1=N\O	104

biological target: CAMK2A (human) (UniProt Q9UQM7); assay: as above; settings: compound 0.5 µM; ATP 10 µM
Sequence (Q9UQM7 whole entry, looked up): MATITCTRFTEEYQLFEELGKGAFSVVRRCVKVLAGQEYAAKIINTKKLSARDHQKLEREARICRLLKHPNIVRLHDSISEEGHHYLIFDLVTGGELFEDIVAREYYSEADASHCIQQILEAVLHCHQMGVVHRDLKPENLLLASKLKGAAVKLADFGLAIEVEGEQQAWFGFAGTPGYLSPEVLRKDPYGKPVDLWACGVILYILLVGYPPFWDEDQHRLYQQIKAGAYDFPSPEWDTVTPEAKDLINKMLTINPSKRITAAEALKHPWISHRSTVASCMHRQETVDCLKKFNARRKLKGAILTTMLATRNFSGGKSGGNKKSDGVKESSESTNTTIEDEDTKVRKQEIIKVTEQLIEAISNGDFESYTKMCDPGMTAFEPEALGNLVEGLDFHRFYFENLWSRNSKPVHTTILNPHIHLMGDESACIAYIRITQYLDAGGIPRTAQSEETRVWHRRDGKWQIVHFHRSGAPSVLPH

Compound	residual activity [%]
Nc1nc(Nc2ccc(S(N)(=O)=O)cc2)nn1C(=O)c1c(F)cccc1F	104
CSc1nc(-c2ccc(F)cc2)c(-c2ccnc(NC(C)c3ccccc3)c2)[nH]1 (configuration not stated)	96.5
CCCNC(=O)Nc1ccc(Oc2ncnc3cc(OC)c(OC)cc23)cc1Cl	97.5
O=C1Nc2cc(Br)ccc2/C1=C1/Nc2ccccc2/C1=N\O	13.9

biological target: MAP4K2 (human) (UniProt Q12851); assay: as above; settings: compound 0.5 µM; ATP 10 µM

Compound	residual activity [%]
Nc1nc(Nc2ccc(S(N)(=O)=O)cc2)nn1C(=O)c1c(F)cccc1F	58.4
CSc1nc(-c2ccc(F)cc2)c(-c2ccnc(NC(C)c3ccccc3)c2)[nH]1 (configuration not stated)	82.5
CCCNC(=O)Nc1ccc(Oc2ncnc3cc(OC)c(OC)cc23)cc1Cl	83.1
O=C1Nc2cc(Br)ccc2/C1=C1/Nc2ccccc2/C1=N\O	61.5

biological target: NEK7 (human) (UniProt Q8TDX7); assay: as above; settings: compound 0.5 µM; ATP 10 µM

Compound	residual activity [%]
Nc1nc(Nc2ccc(S(N)(=O)=O)cc2)nn1C(=O)c1c(F)cccc1F	99
CSc1nc(-c2ccc(F)cc2)c(-c2ccnc(NC(C)c3ccccc3)c2)[nH]1 (configuration not stated)	89.6
CCCNC(=O)Nc1ccc(Oc2ncnc3cc(OC)c(OC)cc23)cc1Cl	103
O=C1Nc2cc(Br)ccc2/C1=C1/Nc2ccccc2/C1=N\O	103

biological target: STK4 (human) (UniProt Q13043); assay: as above; settings: compound 0.5 µM; ATP 10 µM

Compound	residual activity [%]
Nc1nc(Nc2ccc(S(N)(=O)=O)cc2)nn1C(=O)c1c(F)cccc1F	19.9
CSc1nc(-c2ccc(F)cc2)c(-c2ccnc(NC(C)c3ccccc3)c2)[nH]1 (configuration not stated)	89.8
CCCNC(=O)Nc1ccc(Oc2ncnc3cc(OC)c(OC)cc23)cc1Cl	92.8
O=C1Nc2cc(Br)ccc2/C1=C1/Nc2ccccc2/C1=N\O	22.5

biological target: MYLK (human) (UniProt Q15746); assay: as above; settings: compound 0.5 µM; ATP 10 µM

Compound	residual activity [%]
Nc1nc(Nc2ccc(S(N)(=O)=O)cc2)nn1C(=O)c1c(F)cccc1F	80
CSc1nc(-c2ccc(F)cc2)c(-c2ccnc(NC(C)c3ccccc3)c2)[nH]1 (configuration not stated)	100
CCCNC(=O)Nc1ccc(Oc2ncnc3cc(OC)c(OC)cc23)cc1Cl	97.4
O=C1Nc2cc(Br)ccc2/C1=C1/Nc2ccccc2/C1=N\O	45

biological target: MAP3K3 (human) (UniProt Q99759); assay: as above; settings: compound 0.5 µM; ATP 10 µM

Compound	residual activity [%]
Nc1nc(Nc2ccc(S(N)(=O)=O)cc2)nn1C(=O)c1c(F)cccc1F	27.5
CSc1nc(-c2ccc(F)cc2)c(-c2ccnc(NC(C)c3ccccc3)c2)[nH]1 (configuration not stated)	80
CCCNC(=O)Nc1ccc(Oc2ncnc3cc(OC)c(OC)cc23)cc1Cl	95.3
O=C1Nc2cc(Br)ccc2/C1=C1/Nc2ccccc2/C1=N\O	107

biological target: CAMK2B (human) (UniProt Q13554); assay: as above; settings: compound 0.5 µM; ATP 10 µM

Compound	residual activity [%]
Nc1nc(Nc2ccc(S(N)(=O)=O)cc2)nn1C(=O)c1c(F)cccc1F	99.7
CSc1nc(-c2ccc(F)cc2)c(-c2ccnc(NC(C)c3ccccc3)c2)[nH]1 (configuration not stated)	89.2
CCCNC(=O)Nc1ccc(Oc2ncnc3cc(OC)c(OC)cc23)cc1Cl	94.9
O=C1Nc2cc(Br)ccc2/C1=C1/Nc2ccccc2/C1=N\O	65.8

biological target: PRKACA (human) (UniProt P17612); assay: as above; settings: compound 0.5 µM; ATP 10 µM

Compound	residual activity [%]
Nc1nc(Nc2ccc(S(N)(=O)=O)cc2)nn1C(=O)c1c(F)cccc1F	98.8
CSc1nc(-c2ccc(F)cc2)c(-c2ccnc(NC(C)c3ccccc3)c2)[nH]1 (configuration not stated)	96
CCCNC(=O)Nc1ccc(Oc2ncnc3cc(OC)c(OC)cc23)cc1Cl	99.7
O=C1Nc2cc(Br)ccc2/C1=C1/Nc2ccccc2/C1=N\O	106

biological target: EPHB2 (human) (UniProt P29323); assay: as above; settings: compound 0.5 µM; ATP 10 µM
Sequence (P29323 whole entry, looked up): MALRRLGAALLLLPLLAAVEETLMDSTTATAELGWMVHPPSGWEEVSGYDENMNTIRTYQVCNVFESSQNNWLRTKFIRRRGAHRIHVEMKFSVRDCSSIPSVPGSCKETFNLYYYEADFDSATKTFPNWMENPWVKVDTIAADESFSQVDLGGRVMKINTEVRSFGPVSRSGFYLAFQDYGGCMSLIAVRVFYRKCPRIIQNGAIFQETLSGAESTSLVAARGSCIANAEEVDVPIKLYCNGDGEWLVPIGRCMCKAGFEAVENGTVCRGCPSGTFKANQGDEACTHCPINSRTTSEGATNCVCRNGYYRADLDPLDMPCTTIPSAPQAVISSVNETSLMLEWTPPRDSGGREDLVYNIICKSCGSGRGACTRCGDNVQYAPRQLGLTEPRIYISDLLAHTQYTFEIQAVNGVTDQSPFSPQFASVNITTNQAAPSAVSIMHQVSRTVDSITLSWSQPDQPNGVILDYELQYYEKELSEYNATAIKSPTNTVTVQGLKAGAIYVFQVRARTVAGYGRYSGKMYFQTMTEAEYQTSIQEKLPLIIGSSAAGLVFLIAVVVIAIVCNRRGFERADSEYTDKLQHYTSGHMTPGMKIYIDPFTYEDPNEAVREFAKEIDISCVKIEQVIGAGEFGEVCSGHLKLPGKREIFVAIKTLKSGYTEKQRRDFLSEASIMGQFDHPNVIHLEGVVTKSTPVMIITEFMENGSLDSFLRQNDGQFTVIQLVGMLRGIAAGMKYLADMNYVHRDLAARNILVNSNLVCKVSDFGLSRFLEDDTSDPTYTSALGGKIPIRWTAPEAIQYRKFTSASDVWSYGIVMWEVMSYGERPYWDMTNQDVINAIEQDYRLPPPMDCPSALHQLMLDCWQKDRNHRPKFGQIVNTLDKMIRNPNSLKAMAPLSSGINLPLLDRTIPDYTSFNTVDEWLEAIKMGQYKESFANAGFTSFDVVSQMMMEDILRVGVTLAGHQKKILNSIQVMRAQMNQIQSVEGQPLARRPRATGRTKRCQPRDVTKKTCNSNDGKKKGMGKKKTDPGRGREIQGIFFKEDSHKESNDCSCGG

Compound	residual activity [%]
Nc1nc(Nc2ccc(S(N)(=O)=O)cc2)nn1C(=O)c1c(F)cccc1F	96.1
CSc1nc(-c2ccc(F)cc2)c(-c2ccnc(NC(C)c3ccccc3)c2)[nH]1 (configuration not stated)	85.4
CCCNC(=O)Nc1ccc(Oc2ncnc3cc(OC)c(OC)cc23)cc1Cl	90.8
O=C1Nc2cc(Br)ccc2/C1=C1/Nc2ccccc2/C1=N\O	74.7

biological target: MAPKAPK3 (human) (UniProt Q16644); assay: as above; settings: compound 0.5 µM; ATP 10 µM
Sequence (Q16644 whole entry, looked up): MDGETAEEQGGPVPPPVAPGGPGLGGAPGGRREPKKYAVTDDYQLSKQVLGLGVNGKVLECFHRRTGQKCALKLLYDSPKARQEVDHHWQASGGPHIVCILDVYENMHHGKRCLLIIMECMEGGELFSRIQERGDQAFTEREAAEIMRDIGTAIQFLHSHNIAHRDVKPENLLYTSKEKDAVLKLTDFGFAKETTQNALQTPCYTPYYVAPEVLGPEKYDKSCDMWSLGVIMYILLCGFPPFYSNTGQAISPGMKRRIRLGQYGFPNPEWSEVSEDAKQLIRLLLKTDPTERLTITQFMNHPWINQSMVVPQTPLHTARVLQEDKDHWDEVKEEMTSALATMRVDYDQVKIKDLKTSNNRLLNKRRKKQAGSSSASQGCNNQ

Compound	residual activity [%]
Nc1nc(Nc2ccc(S(N)(=O)=O)cc2)nn1C(=O)c1c(F)cccc1F	98
CSc1nc(-c2ccc(F)cc2)c(-c2ccnc(NC(C)c3ccccc3)c2)[nH]1 (configuration not stated)	107
CCCNC(=O)Nc1ccc(Oc2ncnc3cc(OC)c(OC)cc23)cc1Cl	95.8
O=C1Nc2cc(Br)ccc2/C1=C1/Nc2ccccc2/C1=N\O	96.1

biological target: PRKX (human) (UniProt P51817); assay: as above; settings: compound 0.5 µM; ATP 10 µM
Sequence (P51817 whole entry, looked up): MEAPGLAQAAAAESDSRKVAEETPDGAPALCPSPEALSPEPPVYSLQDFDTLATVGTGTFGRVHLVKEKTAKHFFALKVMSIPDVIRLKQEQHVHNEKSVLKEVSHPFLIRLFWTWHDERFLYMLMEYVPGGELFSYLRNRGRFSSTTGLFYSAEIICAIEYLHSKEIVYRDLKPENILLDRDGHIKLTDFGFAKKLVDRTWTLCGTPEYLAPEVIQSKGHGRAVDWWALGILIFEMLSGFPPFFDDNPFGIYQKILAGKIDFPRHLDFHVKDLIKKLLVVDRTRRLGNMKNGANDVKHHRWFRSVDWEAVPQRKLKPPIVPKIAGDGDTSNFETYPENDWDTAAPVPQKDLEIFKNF

Compound	residual activity [%]
Nc1nc(Nc2ccc(S(N)(=O)=O)cc2)nn1C(=O)c1c(F)cccc1F	89
CSc1nc(-c2ccc(F)cc2)c(-c2ccnc(NC(C)c3ccccc3)c2)[nH]1 (configuration not stated)	91.5
CCCNC(=O)Nc1ccc(Oc2ncnc3cc(OC)c(OC)cc23)cc1Cl	100
O=C1Nc2cc(Br)ccc2/C1=C1/Nc2ccccc2/C1=N\O	92.1

biological target: CAMK2G (human) (UniProt Q13555); assay: as above; settings: compound 0.5 µM; ATP 10 µM

Compound	residual activity [%]
Nc1nc(Nc2ccc(S(N)(=O)=O)cc2)nn1C(=O)c1c(F)cccc1F	104
CSc1nc(-c2ccc(F)cc2)c(-c2ccnc(NC(C)c3ccccc3)c2)[nH]1 (configuration not stated)	102
